Measured values taken from patent US11571435B2, “S1PR4-targeting composition for preventing or treating non-alcoholic steatohepatitis” (UNIVERSITY OF ULSAN FOUNDATION FOR INDUSTRY COOPERATION, priority 2017, dated 2023).
Blank lines part the entries; values can stand above or below the compound they belong to.

Tests used:
[1] = reported for FTY720; cited from earlier work
S1PR4-EGFP = test: S1PR4 internalization and recycling in cell lines overexpressing S1PR4-EGFP (fluorescence microscopy); type: cell-based; details: S1P 100 nM, FTY720 100 nM, SLB736 1 μM, cycloheximide; for S1PR4 internalization: 30 minutes after treatment; for S1PR4 recycling to the cell membrane: 2 hours (washed after 30 minutes)
Experimental: Cell lines overexpressing S1PR4-EGFP were used to identify whether or not SLB736 and FTY720 actually internalize S1PR4 into cells and thereby act as functional antagonists.
Specifically, the cell lines overexpressing S1PR4-EGFP were incubated in a cover glass allowing for microscopic observation and were then treated with a vehicle (dimethyl sulfoxide […]), S1P (100 nM; agonist, positive control group), FTY720 (100 nM) and SLB736 (1 μM). 30 minutes and 2 hours after treatment with each material, the cell lines were fixed with a fixing solution and observed with a fluorescence microscope. At this time, the cells were cultured after treatment with a protein synthesis inhibitor (cycloheximide) in order to inhibit the synthesis of new receptors, were first observed with a fluorescence microscope 30 minutes after each material treatment, and were then washed. Then, the cells were further cultured for 1 hour 30 minutes and were secondarily observed, and cell images were obtained.

S1PR4 [2] = target: T1, S1PR4 (Homo sapiens, UniProt O95977); test: agonistic activity of S1P receptors, GPCR activity measurement method of DiscoveRX Corp.; type: cell-based
T1 construct: purchased DiscoveRX Corp
T1 sequence (O95977 1-384): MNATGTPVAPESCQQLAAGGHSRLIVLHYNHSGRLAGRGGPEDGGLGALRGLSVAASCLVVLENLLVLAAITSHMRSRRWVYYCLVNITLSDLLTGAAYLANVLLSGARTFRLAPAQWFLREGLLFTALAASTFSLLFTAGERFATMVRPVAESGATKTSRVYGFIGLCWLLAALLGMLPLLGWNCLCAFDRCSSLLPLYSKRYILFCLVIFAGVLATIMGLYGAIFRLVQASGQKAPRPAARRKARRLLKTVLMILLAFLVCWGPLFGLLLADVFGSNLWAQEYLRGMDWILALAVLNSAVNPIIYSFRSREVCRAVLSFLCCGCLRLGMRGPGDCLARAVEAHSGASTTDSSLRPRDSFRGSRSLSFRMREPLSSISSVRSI

S1PR4 [3] = target: T2, S1PR4 (Mus musculus, UniProt Q9Z0L1); test: S1PR4 expression in LPS-treated Raw cells; type: cell-based; details: substance then LPS, vs LPS only
T2 construct: endogenous in cells; host or cells: Raw cells (mouse macrophage line)
T2 sequence (Q9Z0L1 1-386): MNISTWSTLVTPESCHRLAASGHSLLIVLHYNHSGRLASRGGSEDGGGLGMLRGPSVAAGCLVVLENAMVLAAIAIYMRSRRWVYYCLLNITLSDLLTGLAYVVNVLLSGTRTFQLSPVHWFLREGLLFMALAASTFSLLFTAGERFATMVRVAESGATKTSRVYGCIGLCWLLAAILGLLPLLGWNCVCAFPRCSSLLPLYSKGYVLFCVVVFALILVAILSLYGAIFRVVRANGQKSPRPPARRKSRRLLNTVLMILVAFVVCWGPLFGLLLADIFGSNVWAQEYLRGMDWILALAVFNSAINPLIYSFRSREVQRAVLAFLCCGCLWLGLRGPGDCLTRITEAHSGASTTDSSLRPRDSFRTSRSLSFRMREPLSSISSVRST
Experimental: In addition, Raw cells, which are mouse macrophage lines, were treated with a FTY720 or SLB736 substance, and were then treated with LPS, and S1PR4 expression was then measured.

[4] = system: non-alcoholic steatohepatitis (NASH) caused by MCDD; test: prevention of NASH onset in mice administered MCDD for 6 weeks; type: in vivo, mouse
Source text: In order to identify the effect of the SLB736 compound on the prevention of onset of non-alcoholic steatohepatitis (NASH), an animal model administered with MCDD for 6 weeks was used. Generally known characteristic microscopic findings of NASH include steatosis, ballooning degeneration of hepatocytes, lobular inflammation, perisinusoidal fibrosis and the like. In 2005, the NASH clinical research network (CRN) designed a detailed grading system for lesions corresponding to nonalcoholic steatohepatitis and thus proposed the nonalcoholic fatty liver disease activity score (NAS), which is widely used in various research due to the excellent reproducibility thereof. Accordingly, the present inventors have scored the grade of steatosis, location of steatosis, lobular inflammation and the extent of fibrosis, from the results of liver tissue observation of animal models, based on the CRN classification system. Based on this, the effect of SLB736, which is the target compound in the present invention, on the prevention or progression of non-alcoholic steatohepatitis caused by MCDD was evaluated. […] In order to determine this quantitatively, evaluation was conducted according to the NAS system of the CRN. […] In addition, the expression levels of TGF-β, TNF-α and MCP-1 were measured in order to identify the effects of the SLB736 compound on the expression of inflammatory markers and fibrosis markers in liver tissue. Specifically, RNA was extracted from liver tissue of the animal model and mRNA was measured using Q-PCR.

NLRP3 inflammasome = test: IL-1β production of LPS-treated macrophages (NLRP3 inflammasome activity); type: cell-based, mouse; details: Raw cells; for inhibitory effect of IL-1β production: then LPS
Source text: It is well known that the treatment of macrophages with lipopolysaccharide (LPS) results in activation of inflammation-regulating complex (inflammasome), thereby increasing IL-1β production (Mariathasan et al., Nat. Rev. Immunol. 2007; 17186029). In order to determine the inhibitory effect of the activity of inflammation-regulating complex (NLRP3 inflammasome), which is a representative inflammation-regulating protein, the IL-1(3 production of candidate substances upon the treatment of macrophages with LPS was measured and evaluated.
The macrophages were treated with myriocin in different concentrations as a control group and were then treated with the same concentration of LPS for 24 hours. […] Based on this, experiments were conducted to determine the effect of sphingolipid candidates on the inhibition of IL-1β.

[5] = system: non-alcoholic steatohepatitis (NASH) caused by MCDD; test: treatment of NASH in NASH-induced mice (MCDD for 4 weeks, then 4 weeks treatment); type: in vivo, mouse; details: 5 mg/kg/day for 4 weeks after 4 weeks MCDD, liver tissue
Experimental: A NASH-induced animal model obtained by administering MCDD to 8-week-old mice (C57BL6/N, Orient Bio Inc., Korea) for 4 weeks was used in order to identify the effect of the SLB736 compound on the treatment of non-alcoholic steatohepatitis (NASH). Specifically, the NASH-induced model mice were divided into two groups, the control group was further fed with MCDD for 4 weeks, the experimental group was fed with SLB736 at a dose of 5 mg/kg/day for 4 weeks in combination with MCDD, and liver tissue was collected from each mouse and observed with a microscope to determine the degree of steatosis, lobular inflammation and fibrosis.

S1PR4 [6] = target: T2, S1PR4; test: S1PR4 protein expression in liver tissue of MCDD-fed mice (Western blotting); type: in vivo; details: C57BL/6N mice, 1 mg/kg with MCDD for 6 weeks, vs MCDD alone
Source text: In order to determine whether or not SLB736, the compound of the present invention, acts as a functional antagonist of S1PR4, changes in S1PR4 protein expression were observed after administration of candidate substances to nonalcoholic steatohepatitis (NASH) model mice and macrophages thereof.
It is well known that the administration of a methionine choline-deficient diet (MCDD) to mice results in non-alcoholic steatohepatitis. The mice (C57BL/6N, Orient Bio, Inc., Korea) used in the experiments were divided into three groups, and MCDD alone, 1 mg/kg of MCDD and FTY720, and 1 mg/kg of MCDD and SLB736 were administered to each group for 6 weeks. Then, changes in the expression of S1PR4 protein in liver tissue of mice were measured through Western blotting.

[7] = leukocytes and lymphocytes in whole blood after administration (lymphopenia); type: in vivo, mouse; details: mice, automated analyzer
Experimental: Therefore, when the SLB736 of the present invention was administered, changes of leukocytes and lymphocytes in the blood were measured to determine the possibility of side effects. On the day of autopsy, blood was collected from the posterior vein using a syringe and whole blood was refrigerated in an EDTA-2K CBC bottle. The leukocytes and lymphocytes in the whole blood were measured using an automated analyzer.

[8] = 10 times a normal dose; cited from earlier work
[9] = 1 mg/kg/day for six weeks with MCDD, liver tissue
[10] = 1 mg/kg/day for six weeks with MCDD, vs control group
[11] = liver tissue, MCDD 6 weeks model

Structure (SMILES): CCCCCCCCc1ccc(CCC(N)(CO)CO)cc1 [FTY720, Fingolimod]
- side effect in the blood [1]: lymphopenia in the blood

Structure (SMILES): CCCCCCCCCCCCC/C=C/[C@@H](O)[C@@H](N)COP(=O)(O)O [S1P, sphingosine 1-phosphate, reference compound]
- S1PR4 internalization (S1PR4-EGFP): internalized
- S1PR4 recycling to the cell membrane (S1PR4-EGFP): recycled to the cell membrane

- agonistic activity of S1P receptors (S1PR4 [2]): agonistic effect specific for S1PR4
- expression level of S1PR4 (S1PR4 [3]): significantly reduce
- amount of S1PR4 protein in liver tissue (S1PR4 [6]): decreased
- leukocytes in blood [7]: no reduction
- lymphocytes in blood [7]: no reduction
Structure (SMILES): CCCCCCCCCCn1cc(CCC(N)(CO)CO)nn1 [SLB736, 2-amino-2-(2-(1-decyl-1H-1,2,3-triazol-4-yl)ethyl)propane-1,3-diol]
- degree of fibrosis (microscope) [4, 9]: significantly reduced
- degree of steatosis (microscope) [4, 9]: significantly reduced
- lobular inflammation (microscope) [4, 9]: significantly reduced
- degree of fibrosis, NAS system of the CRN [4, 10]: significantly alleviated
- degree of steatosis, NAS system of the CRN [4, 10]: significantly alleviated
- lobular inflammation, NAS system of the CRN [4, 10]: significantly alleviated
- expression of MCP-1 (mRNA, Q-PCR) [4, 11]: reduced to a significant level
- expression of TGF-β (mRNA, Q-PCR) [4, 11]: reduced to a significant level
- expression of TNF-α (mRNA, Q-PCR) [4, 11]: reduced to a significant level
- inhibitory effect of IL-1β production (NLRP3 inflammasome; 0.1 μM): excellent
- inhibitory effect of IL-1β production (NLRP3 inflammasome; 1.0 μM): excellent
- degree of fibrosis (microscope) [5]: considerable reduction
- degree of steatosis (microscope) [5]: considerable reduction
- lobular inflammation (microscope) [5]: considerable reduction
- S1PR4 internalization (S1PR4-EGFP): internalized
- S1PR4 recycling to the cell membrane (S1PR4-EGFP): not recycled

Structure (SMILES): CCCCCCC(=O)CCCCCC/C=C/C[C@@H](O)[C@H](O)[C@@](N)(CO)C(=O)O [myriocin, reference compound]
- IL-1β production (NLRP3 inflammasome; 10 μM, then LPS 100 ng/ml for 24 hours): effectively reduced IL-1β production
- toxicity in animals [8]: death from severe digestive disorders
